Experimental data as given in PubChem BioAssay (NCI).
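48-hour exposure; five concentrations; linearly interpolated endpoints. GI50: concentration for 50% inhibition of growth. TGI marks complete inhibition of growth.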

Columns and labels:
Experiment in all cases: growth of human tumour cells (NCI), 48 h
OVCAR-5 ovarian = system: OVCAR-5 ovarian
MCF7 breast = system: MCF7 breast
HOP-92 NSCLC = system: HOP-92 NSCLC
SK-MEL-2 melanoma = system: SK-MEL-2 melanoma
SNB-75 CNS = system: SNB-75 CNS
SF-539 CNS = system: SF-539 CNS
M14 melanoma = system: M14 melanoma
ACHN renal = system: ACHN renal
HT29 colon = system: HT29 colon
T-47D breast = system: T-47D breast
A498 renal = system: A498 renal
SN12C renal = system: SN12C renal
SNB-19 CNS = system: SNB-19 CNS
MDA-MB-435 = system: MDA-MB-435
HOP-62 NSCLC = system: HOP-62 NSCLC
SK-OV-3 ovarian = system: SK-OV-3 ovarian
SF-268 CNS = system: SF-268 CNS
HS 578T breast = system: HS 578T breast
K-562 leukemia = system: K-562 leukemia
RXF 393 renal = system: RXF 393 renal
LOX IMVI melanoma = system: LOX IMVI melanoma
UO-31 renal = system: UO-31 renal
SK-MEL-5 melanoma = system: SK-MEL-5 melanoma
CAKI-1 renal = system: CAKI-1 renal
CCRF-CEM leukemia = system: CCRF-CEM leukemia
KM12 colon = system: KM12 colon
U251 CNS = system: U251 CNS
DU-145 prostate = system: DU-145 prostate
HCT-116 colon = system: HCT-116 colon
SF-295 CNS = system: SF-295 CNS
786-0 renal = system: 786-0 renal
NCI-H522 lung = system: NCI-H522 lung
NCI-H460 lung = system: NCI-H460 lung
HCT-15 colon = system: HCT-15 colon
OVCAR-8 ovarian = system: OVCAR-8 ovarian
NCI-H23 lung = system: NCI-H23 lung
OVCAR-4 ovarian = system: OVCAR-4 ovarian
IGROV1 ovarian = system: IGROV1 ovarian
A549 NSCLC = system: A549 NSCLC
MOLT-4 leukemia = system: MOLT-4 leukemia
OVCAR-3 ovarian = system: OVCAR-3 ovarian
SW-620 colon = system: SW-620 colon
MDA-MB-231 breast = system: MDA-MB-231 breast
NCI/ADR-RES ovarian = system: NCI/ADR-RES ovarian
TK-10 renal = system: TK-10 renal
PC-3 prostate = system: PC-3 prostate
SR leukemia = system: SR leukemia
UACC-257 melanoma = system: UACC-257 melanoma
SK-MEL-28 melanoma = system: SK-MEL-28 melanoma
UACC-62 melanoma = system: UACC-62 melanoma
HL-60(TB) leukemia = system: HL-60(TB) leukemia
RPMI-8226 leukemia = system: RPMI-8226 leukemia
MALME-3M melanoma = system: MALME-3M melanoma
NCI-H226 lung = system: NCI-H226 lung
COLO 205 colon = system: COLO 205 colon
BT-549 breast = system: BT-549 breast
HCC-2998 colon = system: HCC-2998 colon

With `O=C(Nc1cccc(-n2cc(-c3ccncc3)c(-c3ccc(Cl)c(O)c3)n2)c1)Nc1cc(C(F)(F)F)cc(C(F)(F)F)c1` the GI50 (OVCAR-5 ovarian) was 846 nM, the TGI (OVCAR-5 ovarian) was 1880 nM and the GI50 (MCF7 breast) was 666 nM. For the same compound, the TGI (MCF7 breast) was 4620 nM, the GI50 (HOP-92 NSCLC) was 196 nM and the TGI (HOP-92 NSCLC) was 1150 nM. For the same compound, the GI50 (SK-MEL-2 melanoma) was 999 nM, the TGI (SK-MEL-2 melanoma) was 2180 nM and the GI50 (SNB-75 CNS) was 896 nM. It also gave a TGI (SNB-75 CNS) of 2300 nM, a GI50 (SF-539 CNS) of 777 nM and a TGI (SF-539 CNS) of 1530 nM. For the same compound, the GI50 (M14 melanoma) was 692 nM, the TGI (M14 melanoma) was 1900 nM and the GI50 (ACHN renal) was 669 nM. The TGI (ACHN renal) was 4200 nM, the GI50 (HT29 colon) was 711 nM and the TGI (HT29 colon) was 1640 nM. For the same compound, the GI50 (T-47D breast) was 1550 nM, the TGI (T-47D breast) was 8930 nM and the GI50 (A498 renal) was 595 nM. It also gave a TGI (A498 renal) of 2300 nM, a GI50 (SN12C renal) of 852 nM and a TGI (SN12C renal) of 3140 nM. It also gave a GI50 (SNB-19 CNS) of 979 nM, a TGI (SNB-19 CNS) of 6650 nM and a GI50 (MDA-MB-435) of 829 nM. It also gave a TGI (MDA-MB-435) of 2070 nM, a GI50 (HOP-62 NSCLC) of 902 nM and a TGI (HOP-62 NSCLC) of 1810 nM. The GI50 (SK-OV-3 ovarian) was 1180 nM, the TGI (SK-OV-3 ovarian) was 2830 nM and the GI50 (SF-268 CNS) was 846 nM. For the same compound, the TGI (SF-268 CNS) was 2290 nM, the GI50 (HS 578T breast) was 1200 nM and the TGI (HS 578T breast) was 4010 nM. The GI50 (K-562 leukemia) was 520 nM, the TGI (K-562 leukemia) was 2980 nM and the GI50 (RXF 393 renal) was 935 nM. For the same compound, the TGI (RXF 393 renal) was 2210 nM, the GI50 (LOX IMVI melanoma) was 712 nM and the TGI (LOX IMVI melanoma) was 1400 nM. The GI50 (UO-31 renal) was 676 nM, the TGI (UO-31 renal) was 1770 nM and the GI50 (SK-MEL-5 melanoma) was 604 nM. The TGI (SK-MEL-5 melanoma) was 1260 nM, the GI50 (CAKI-1 renal) was 867 nM and the TGI (CAKI-1 renal) was 2880 nM. It also gave a GI50 (CCRF-CEM leukemia) of 789 nM, a TGI (CCRF-CEM leukemia) of 6780 nM and a GI50 (KM12 colon) of 511 nM. For the same compound, the TGI (KM12 colon) was 1350 nM, the GI50 (U251 CNS) was 484 nM and the TGI (U251 CNS) was 1150 nM. It also gave a GI50 (DU-145 prostate) of 963 nM, a TGI (DU-145 prostate) of 2940 nM and a GI50 (HCT-116 colon) of 487 nM. For the same compound, the TGI (HCT-116 colon) was 1240 nM, the GI50 (SF-295 CNS) was 618 nM and the TGI (SF-295 CNS) was 1650 nM. The GI50 (786-0 renal) was 1020 nM, the TGI (786-0 renal) was 2350 nM and the GI50 (NCI-H522 lung) was 707 nM. It also gave a TGI (NCI-H522 lung) of 2100 nM, a GI50 (NCI-H460 lung) of 391 nM and a TGI (NCI-H460 lung) of 1360 nM. It also gave a GI50 (HCT-15 colon) of 591 nM, a TGI (HCT-15 colon) of 3010 nM and a GI50 (OVCAR-8 ovarian) of 563 nM. It also gave a TGI (OVCAR-8 ovarian) of 5920 nM, a GI50 (NCI-H23 lung) of 998 nM and a TGI (NCI-H23 lung) of 2860 nM. The GI50 (OVCAR-4 ovarian) was 795 nM, the TGI (OVCAR-4 ovarian) was 3280 nM and the GI50 (IGROV1 ovarian) was 795 nM. It also gave a TGI (IGROV1 ovarian) of 2550 nM, a GI50 (A549 NSCLC) of 313 nM and a TGI (A549 NSCLC) of 1380 nM. The GI50 (MOLT-4 leukemia) was 1150 nM, the TGI (MOLT-4 leukemia) was 4360 nM and the GI50 (OVCAR-3 ovarian) was 345 nM. The TGI (OVCAR-3 ovarian) was 1110 nM, the GI50 (SW-620 colon) was 1180 nM and the TGI (SW-620 colon) was 3730 nM. The GI50 (MDA-MB-231 breast) was 768 nM, the TGI (MDA-MB-231 breast) was 1660 nM and the GI50 (NCI/ADR-RES ovarian) was 1230 nM. For the same compound, the TGI (NCI/ADR-RES ovarian) was 5670 nM, the GI50 (TK-10 renal) was 843 nM and the TGI (TK-10 renal) was 2750 nM. For the same compound, the GI50 (PC-3 prostate) was 261 nM, the TGI (PC-3 prostate) was 2240 nM and the GI50 (SR leukemia) was 876 nM. The TGI (SR leukemia) was 3220 nM, the GI50 (UACC-257 melanoma) was 890 nM and the TGI (UACC-257 melanoma) was 2240 nM. It also gave a GI50 (SK-MEL-28 melanoma) of 807 nM, a TGI (SK-MEL-28 melanoma) of 1610 nM and a GI50 (UACC-62 melanoma) of 766 nM. For the same compound, the TGI (UACC-62 melanoma) was 1960 nM, the GI50 (HL-60(TB) leukemia) was 1130 nM and the TGI (HL-60(TB) leukemia) was 6630 nM. The GI50 (RPMI-8226 leukemia) was 434 nM, the TGI (RPMI-8226 leukemia) was 10600 nM and the GI50 (MALME-3M melanoma) was 831 nM. It also gave a TGI (MALME-3M melanoma) of 2240 nM, a GI50 (NCI-H226 lung) of 1200 nM and a TGI (NCI-H226 lung) of 5140 nM. The GI50 (COLO 205 colon) was 896 nM, the TGI (COLO 205 colon) was 1710 nM and the GI50 (BT-549 breast) was 1050 nM. The TGI (BT-549 breast) was 2050 nM, the GI50 (HCC-2998 colon) was 977 nM and the TGI (HCC-2998 colon) was 2040 nM.
